In PubChem BioAssay (NCI):
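Tested at 5 concentrations; 48 h exposure; 96-well plates; endpoints linearly interpolated, else capped at highest concentration. GI50 marks 50% less growth. TGI is the concentration that stops growth completely.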

Experiments:
Assay in all cases: NCI anticancer screen, dose series, 48 h
HOP-92 NSCLC = system: HOP-92 NSCLC
CAKI-1 renal = system: CAKI-1 renal
DU-145 prostate = system: DU-145 prostate
CCRF-CEM leukemia = system: CCRF-CEM leukemia
HCT-116 colon = system: HCT-116 colon
SF-268 CNS = system: SF-268 CNS
U251 CNS = system: U251 CNS
LOX IMVI melanoma = system: LOX IMVI melanoma
M14 melanoma = system: M14 melanoma
MOLT-4 leukemia = system: MOLT-4 leukemia
NCI/ADR-RES ovarian = system: NCI/ADR-RES ovarian
SF-539 CNS = system: SF-539 CNS
786-0 renal = system: 786-0 renal
HOP-62 NSCLC = system: HOP-62 NSCLC
UACC-62 melanoma = system: UACC-62 melanoma
SR leukemia = system: SR leukemia
MDA-MB-231 breast = system: MDA-MB-231 breast
SW-620 colon = system: SW-620 colon
UACC-257 melanoma = system: UACC-257 melanoma
UO-31 renal = system: UO-31 renal
BT-549 breast = system: BT-549 breast
ACHN renal = system: ACHN renal
MDA-MB-435 = system: MDA-MB-435
NCI-H460 lung = system: NCI-H460 lung
OVCAR-5 ovarian = system: OVCAR-5 ovarian
NCI-H226 lung = system: NCI-H226 lung
K-562 leukemia = system: K-562 leukemia
PC-3 prostate = system: PC-3 prostate
OVCAR-4 ovarian = system: OVCAR-4 ovarian
RPMI-8226 leukemia = system: RPMI-8226 leukemia
IGROV1 ovarian = system: IGROV1 ovarian
MCF7 breast = system: MCF7 breast
SK-OV-3 ovarian = system: SK-OV-3 ovarian
SNB-19 CNS = system: SNB-19 CNS
SN12C renal = system: SN12C renal
KM12 colon = system: KM12 colon
MALME-3M melanoma = system: MALME-3M melanoma
SF-295 CNS = system: SF-295 CNS
SK-MEL-2 melanoma = system: SK-MEL-2 melanoma
EKVX NSCLC = system: EKVX NSCLC
T-47D breast = system: T-47D breast
TK-10 renal = system: TK-10 renal
RXF 393 renal = system: RXF 393 renal
HCC-2998 colon = system: HCC-2998 colon
SNB-75 CNS = system: SNB-75 CNS
OVCAR-8 ovarian = system: OVCAR-8 ovarian
HS 578T breast = system: HS 578T breast
A498 renal = system: A498 renal
NCI-H522 lung = system: NCI-H522 lung
HCT-15 colon = system: HCT-15 colon

`N#C/C(=C\c1ccc(-c2ccc(F)cc2)o1)C(=O)Nc1ncc(Cc2ccc(Cl)cc2Cl)s1` gave a GI50 (HOP-92 NSCLC) of 2.17 µM, a TGI (HOP-92 NSCLC) of 9.16 µM and a GI50 (CAKI-1 renal) of 3.05 µM. It also gave a TGI (CAKI-1 renal) of 16.7 µM, a GI50 (DU-145 prostate) of 4.19 µM and a TGI (DU-145 prostate) greater than 100 µM. For the same compound, the GI50 (CCRF-CEM leukemia) was 4.23 µM, the TGI (CCRF-CEM leukemia) was greater than 100 µM and the GI50 (HCT-116 colon) was 2.9 µM. It also gave a TGI (HCT-116 colon) of 10.9 µM, a GI50 (SF-268 CNS) of 3.15 µM and a TGI (SF-268 CNS) of 22.6 µM. It also gave a GI50 (U251 CNS) of 2.04 µM, a TGI (U251 CNS) of 4.11 µM and a GI50 (LOX IMVI melanoma) of 1.64 µM. It also gave a TGI (LOX IMVI melanoma) of 3.43 µM, a GI50 (M14 melanoma) of 2.91 µM and a TGI (M14 melanoma) of 23.6 µM. The GI50 (MOLT-4 leukemia) was 5.24 µM, the TGI (MOLT-4 leukemia) was greater than 100 µM and the GI50 (NCI/ADR-RES ovarian) was 3.55 µM. It also gave a TGI (NCI/ADR-RES ovarian) greater than 100 µM, a GI50 (SF-539 CNS) of 2.95 µM and a TGI (SF-539 CNS) of 8.8 µM. It also gave a GI50 (786-0 renal) of 2.69 µM, a TGI (786-0 renal) of 10 µM and a GI50 (HOP-62 NSCLC) of 3.71 µM. The TGI (HOP-62 NSCLC) was 16.8 µM, the GI50 (UACC-62 melanoma) was 3.71 µM and the TGI (UACC-62 melanoma) was greater than 100 µM. The GI50 (SR leukemia) was 0.778 µM, the TGI (SR leukemia) was 12.2 µM and the GI50 (MDA-MB-231 breast) was 3.67 µM. The TGI (MDA-MB-231 breast) was 32.2 µM, the GI50 (SW-620 colon) was 1.79 µM and the TGI (SW-620 colon) was 4.66 µM. It also gave a GI50 (UACC-257 melanoma) of 4.23 µM, a TGI (UACC-257 melanoma) greater than 100 µM and a GI50 (UO-31 renal) of 5 µM. It also gave a TGI (UO-31 renal) greater than 100 µM, a GI50 (BT-549 breast) of 1.98 µM and a TGI (BT-549 breast) of 4.65 µM. The GI50 (ACHN renal) was 3.52 µM, the TGI (ACHN renal) was 13.9 µM and the GI50 (MDA-MB-435) was 2.95 µM. For the same compound, the TGI (MDA-MB-435) was greater than 100 µM, the GI50 (NCI-H460 lung) was 1.76 µM and the TGI (NCI-H460 lung) was 3.64 µM. For the same compound, the GI50 (OVCAR-5 ovarian) was 4.06 µM, the TGI (OVCAR-5 ovarian) was greater than 100 µM and the GI50 (NCI-H226 lung) was 2.83 µM. For the same compound, the TGI (NCI-H226 lung) was 8.52 µM, the GI50 (K-562 leukemia) was 3.48 µM and the TGI (K-562 leukemia) was greater than 100 µM. For the same compound, the GI50 (PC-3 prostate) was 2.19 µM, the TGI (PC-3 prostate) was 6.04 µM and the GI50 (OVCAR-4 ovarian) was 2.99 µM. It also gave a TGI (OVCAR-4 ovarian) of 9.23 µM, a GI50 (RPMI-8226 leukemia) of 4.33 µM and a TGI (RPMI-8226 leukemia) greater than 100 µM. For the same compound, the GI50 (IGROV1 ovarian) was 2.47 µM, the TGI (IGROV1 ovarian) was 7.54 µM and the GI50 (MCF7 breast) was 2.21 µM. For the same compound, the TGI (MCF7 breast) was 8.67 µM, the GI50 (SK-OV-3 ovarian) was 8.63 µM and the TGI (SK-OV-3 ovarian) was 34.9 µM. For the same compound, the GI50 (SNB-19 CNS) was 4.63 µM, the TGI (SNB-19 CNS) was 29.5 µM and the GI50 (SN12C renal) was 2.48 µM. The TGI (SN12C renal) was 8.64 µM, the GI50 (KM12 colon) was greater than 100 µM and the TGI (KM12 colon) was greater than 100 µM. For the same compound, the GI50 (MALME-3M melanoma) was 2.87 µM, the TGI (MALME-3M melanoma) was 9.18 µM and the GI50 (SF-295 CNS) was 1.92 µM. It also gave a TGI (SF-295 CNS) of 4.27 µM, a GI50 (SK-MEL-2 melanoma) of 2.91 µM and a TGI (SK-MEL-2 melanoma) of 16 µM. The GI50 (EKVX NSCLC) was 2.32 µM, the TGI (EKVX NSCLC) was 6.88 µM and the GI50 (T-47D breast) was 2.75 µM. For the same compound, the TGI (T-47D breast) was 29.8 µM, the GI50 (TK-10 renal) was 9.27 µM and the TGI (TK-10 renal) was 30 µM. For the same compound, the GI50 (RXF 393 renal) was 2.28 µM, the TGI (RXF 393 renal) was 5.78 µM and the GI50 (HCC-2998 colon) was 3.36 µM. For the same compound, the TGI (HCC-2998 colon) was greater than 100 µM, the GI50 (SNB-75 CNS) was 6.2 µM and the TGI (SNB-75 CNS) was 28.4 µM. It also gave a GI50 (OVCAR-8 ovarian) of 2.94 µM, a TGI (OVCAR-8 ovarian) of 16.7 µM and a GI50 (HS 578T breast) of 3.19 µM. It also gave a TGI (HS 578T breast) of 27.9 µM, a GI50 (A498 renal) of 3.03 µM and a TGI (A498 renal) of 22 µM. The GI50 (NCI-H522 lung) was 3.49 µM, the TGI (NCI-H522 lung) was 34.6 µM and the GI50 (HCT-15 colon) was 2.38 µM. The TGI (HCT-15 colon) was greater than 100 µM.
